Measurements as given in patent US8927717B1, “Thiochromeno[2,3-c]quinolin-12-one derivatives, preparation method and application thereof” (National Defense Medical Center, priority 2014, dated 2015).

Key:
Assay type in all cases: cell-based
CCRF-CEM = system: CCRF-CEM
K-562 = system: K-562
MOLT-4 = system: MOLT-4
RPMI-8226 = system: RPMI-8226
SR = system: SR
A549/ATCC = system: A549/ATCC
NCI-H226 = system: NCI-H226
NCI-H23 = conditions: Non-small cell lung cancer; 10^−5 molar; 48 hours; SRB
NCI-H522 = system: NCI-H522
HCT-116 = system: HCT-116
HCT-15 = system: HCT-15
KM12 = assay: cells
SF-268 = system: SF-268
SF-295 = system: SF-295
U251 = system: U251
LOX IMVI = system: LOX IMVI
MALME-3M = conditions: Melanoma; 10^−5 molar; 48 hours; SRB
MDA-MB-435 = system: MDA-MB-435
SK-MEL-28 = system: SK-MEL-28
SK-MEL-5 = system: SK-MEL-5
[1] = Leukemia, 10^−5 molar, 48 hours, SRB
[2] = Homo sapiens, A549/ATCC, five dose
[3] = Non-small cell lung cancer, 10^−5 molar, 48 hours, SRB
[4] = Homo sapiens, NCI-H226, five dose
[5] = Homo sapiens, NCI-H522, five dose
[6] = Colon cancer, 10^−5 molar, 48 hours, SRB
[7] = Homo sapiens, HCT-116, five dose
[8] = Homo sapiens, HCT-15, five dose
[9] = CNS cancer, 10^−5 molar, 48 hours, SRB
[10] = Homo sapiens, SF-295, five dose
[11] = Homo sapiens, U-251, U251, five dose
[12] = Homo sapiens, LOX IMVI, five dose
[13] = Melanoma, 10^−5 molar, 48 hours, SRB
[14] = Homo sapiens, SK-MEL-28, five dose
[15] = Homo sapiens, SK-MEL-5, five dose

CN(C)CCNc1nc2ccccc2c2c(=O)c3cc(Cl)ccc3sc12 [Compound N7, 10-Chloro-6-((2-(dimethylamino)ethyl)amino)-12H-thiochromeno[2,3-c]quinolin-12-one]
TGI (CCRF-CEM; CCRF-CEM, five dose): 3.41 µM | GI50 (CCRF-CEM; Homo sapiens, CCRF-CEM, five dose): 1.63 µM | CC50 (CCRF-CEM; Homo sapiens, CCRF-CEM, five dose, read-out: LC50 (the source's name)): 7.15 µM | Growth percent CCRF-CEM (CCRF-CEM; [1]): −53.54% | GI50 (K-562; Homo sapiens, K562, K-562, five dose): 1.33 µM | CC50 (K-562; Homo sapiens, K562, K-562, five dose, read-out: LC50 (the source's name)): 6.74 µM | TGI (K-562; K-562, five dose): 3.00 µM | Growth percent K-562 (K-562; [1]): −58.60% | GI50 (MOLT-4; Homo sapiens, MOLT-4, five dose): 1.71 µM | CC50 (MOLT-4; Homo sapiens, MOLT-4, five dose, read-out: LC50 (the source's name)): 6.74 µM | Growth percent MOLT-4 (MOLT-4; [1]): −56.34% | TGI (MOLT-4; MOLT-4, five dose): 3.40 µM | GI50 (RPMI-8226; Homo sapiens, RPMI-8226, five dose): 1.76 µM | CC50 (RPMI-8226; Homo sapiens, RPMI-8226, five dose, read-out: LC50 (the source's name)): 7.69 µM | Growth percent RPMI-8226 (RPMI-8226; [1]): −37.68% | TGI (RPMI-8226; RPMI-8226, five dose): 3.68 µM | GI50 (SR; Homo sapiens, SR, five dose): 1.7 µM | LC50 (50% lethal concentration) (SR; Homo sapiens, SR, five dose): 8.14 µM | Growth percent SR (SR; [1]): −34.76% | TGI (SR; SR, five dose): 3.73 µM | TGI (A549/ATCC; A549/ATCC, five dose): 3.17 µM | GI50 (A549/ATCC; [2]): 1.66 µM | LC50 (A549/ATCC; [2]): 6.06 µM | Growth percent A549/ATCC (A549/ATCC; [3]): 23.38% | GI50 (NCI-H226; [4]): 1.84 µM | LC50 (concentration giving 50% net cell kill) (NCI-H226; [4]): 24.3 µM | TGI (NCI-H226; NCI-H226, five dose): 4.38 µM | Growth percent NCI-H226 (NCI-H226; [3]): 58.08% | Growth percent NCI-H23 (NCI-H23): 72.59% | GI50 (NCI-H522; [5]): 1.59 µM | LC50 (concentration causing 50% net cell kill) (NCI-H522; [5]): 5.9 µM | TGI (NCI-H522; NCI-H522, five dose): 3.07 µM | Growth percent NCI-H522 (NCI-H522; [3]): −8.99% | Growth percent HCT-116 (HCT-116; [6]): −96.59% | TGI (HCT-116; HCT-116, five dose): 3.18 µM | GI50 (HCT-116; [7]): 1.57 µM | LC50 (concentration killing 50% of cells) (HCT-116; [7]): 6.45 µM | Growth percent HCT-15 (HCT-15; [6]): −30.05% | TGI (HCT-15; HCT-15, five dose): 3.14 µM | GI50 (HCT-15; [8]): 1.59 µM | LC50 (HCT-15; [8]): 6.21 µM | Growth percent KM12 (KM12; [6]): −77.07% | GI50 (KM12; Homo sapiens, KM12, five dose): 1.78 µM | LC50 (KM12; Homo sapiens, KM12, five dose): 6.03 µM | TGI (KM12; KM12, five dose): 3.28 µM | Growth percent SF-268 (SF-268; [9]): 39.05% | GI50 (SF-268; Homo sapiens, SF-268, five dose): 1.57 µM | CC50 (SF-268; Homo sapiens, SF-268, five dose, read-out: LC50 (the source's name)): 6.35 µM | TGI (SF-268; SF-268, five dose): 3.16 µM | Growth percent SF-295 (SF-295; [9]): −32.59% | GI50 (SF-295; [10]): 1.73 µM | LC50 (SF-295; [10]): 5.98 µM | TGI (SF-295; SF-295, five dose): 3.21 µM | Growth percent U251 (U251; [9]): −39.75% | GI50 (U251; [11]): 1.48 µM | LC50 (U251; [11]): 5.44 µM | TGI (U251; U251, five dose): 2.84 µM | GI50 (LOX IMVI; [12]): 1.68 µM | LC50 (LOX IMVI; [12]): 6.24 µM | TGI (LOX IMVI; LOX IMVI, five dose): 3.24 µM | Growth percent LOX IMVI (LOX IMVI; [13]): −84.12% | Growth percent MALME-3M (MALME-3M): −4.32% | GI50 (MDA-MB-435; Homo sapiens, MDA-MB-435, five dose): 1.71 µM | CC50 (MDA-MB-435; Homo sapiens, MDA-MB-435, five dose, read-out: LC50 (the source's name)): 6.05 µM | TGI (MDA-MB-435; MDA-MB-435, five dose): 3.22 µM | Growth percent MDA-MB-435 (MDA-MB-435; [13]): −64.64% | GI50 (SK-MEL-28; [14]): 1.81 µM | LC50 (SK-MEL-28; [14]): 5.89 µM | Growth percent SK-MEL-28 (SK-MEL-28; [13]): −76.79% | TGI (SK-MEL-28; SK-MEL-28, five dose): 3.27 µM | GI50 (SK-MEL-5; [15]): 1.57 µM | LC50 (SK-MEL-5; [15]): 8.21 µM | Growth percent SK-MEL-5 (SK-MEL-5; [13]): 18.83%
